In paper PMC7181051, “Probing the Protein-Protein Interaction between the ATRXADD Domain and the Histone H3 Tail” (Molecules, 2020):
Read-outs that look alike come from different tables or passages of the source. Where a SMILES comes first, the peptide text is derived from it. [ ]: non-standard residue; d: D form. Lys(Me3) = C[N+](C)(C)CCCC[C@H](N)C(=O)O

Biological target: T1, ATRXADD (Homo sapiens, UniProt P46100)
T1 construct: The pGEX-GP-2-ATRX ADD plasmid (Addgene plasmid #59698) [17] was transformed into BL21 cells for expression and purification; GST (N, cleaved yes); peptides GenScript #59698; host or cells: E. coli BL21
T1 sequence (P46100 159-296 limits assumed): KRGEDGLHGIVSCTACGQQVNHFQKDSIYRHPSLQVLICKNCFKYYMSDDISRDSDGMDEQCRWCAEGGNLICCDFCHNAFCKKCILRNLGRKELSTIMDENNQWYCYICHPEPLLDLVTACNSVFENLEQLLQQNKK
Test: Fluorescence polarization (FP) displacement assay
Format: binding
Details: for disruption of the H3:ATRXADD PPI in the FP assay, in words: truncated and modified H3 peptides

[1] = disruption of H3_1-15K9me3-FAM (0.75 µM):ATRXADD (5 µM) PPI, PBS, highest concentration tested 100 µM, ND = no displacement, read-out: FP Assay IC50

| SMILES | IC50 [1] [µM] | disruption of the H3:ATRXADD PPI in the FP assay, in words | IC50 [µM] |
| --- | --- | --- | --- |
| C[C@H](NC(=O)[C@@H](NC(=O)[C@H](CCC(N)=O)NC(=O)[C@H](CCCCN)NC(=O)[C@@H](N)[C@@H](C)O)[C@@H](C)O)C(=O)N[C@@H](CCCNC(=N)N)C(=O)O [Peptide H3_3-8] (H-TKQTAR-OH; N-terminus and C-terminus assumed) |  | inactive | > 100 |
| C[C@H](N)C(=O)N[C@@H](CCCNC(=N)N)C(=O)N[C@@H](CCCC[N+](C)(C)C)C(=O)N[C@@H](CO)C(=O)N[C@H](C(=O)O)[C@@H](C)O [Peptide H3_7-11K9me3] (H-AR[Lys(Me3)]ST-OH; N-terminus and C-terminus assumed) |  | inactive | > 100 |
| C[C@@H](O)[C@H](NC(=O)[C@H](CCC(N)=O)NC(=O)[C@H](CCCCN)NC(=O)[C@@H](NC(=O)[C@@H](N)CCCNC(=N)N)[C@@H](C)O)C(=O)O [Peptide H3_2-6] (H-RTKQT-OH; N-terminus and C-terminus assumed) |  | inactive | > 100 |
| C[C@H](N)C(=O)N[C@@H](CCCNC(=N)N)C(=O)N[C@H](C(=O)N[C@@H](CCCC[N+](C)(C)C)C(=O)N[C@@H](CCC(N)=O)C(=O)N[C@H](C(=O)N[C@@H](C)C(=O)O)[C@@H](C)O)[C@@H](C)O [Peptide H3_1-7K4me3] (H-ART[Lys(Me3)]QTA-OH) |  |  | > 100 |

Continued, in another order:

| IC50 [1] [µM] | SMILES | disruption of the H3:ATRXADD PPI in the FP assay, in words | IC50 [µM] |
| --- | --- | --- | --- |
| > 100 | C[C@@H](O)[C@H](N)C(=O)N[C@@H](CCCCN)C(=O)N[C@@H](CCC(N)=O)C(=O)O [Peptide H3_3-5] (H-Thr-Lys-Gln-OH; N-terminus and C-terminus assumed) | inactive |  |
| > 100 | C[C@H](NC(=O)[C@@H](NC(=O)[C@H](CCC(N)=O)NC(=O)[C@H](CCCC[N+](C)(C)C)NC(=O)[C@@H](N)[C@@H](C)O)[C@@H](C)O)C(=O)N[C@@H](CCCNC(=N)N)C(=O)N[C@@H](CCCC[N+](C)(C)C)C(=O)N[C@@H](CO)C(=O)O [H3_3-10K4me3K9me3] (H-T[Lys(Me3)]QTAR[Lys(Me3)]S-OH; N-terminus and C-terminus assumed) |  |  |
| ≥ 100 | C[C@H](N)C(=O)N[C@@H](CCCNC(=N)N)C(=O)N[C@H](C(=O)N[C@@H](CCCC[N+](C)(C)C)C(=O)N[C@@H](CCC(N)=O)C(=O)N[C@H](C(=O)N[C@@H](C)C(=O)N[C@@H](CCCNC(=N)N)C(=O)N[C@@H](CCCC[N+](C)(C)C)C(=O)N[C@@H](CO)C(=O)N[C@H](C(=O)O)[C@@H](C)O)[C@@H](C)O)[C@@H](C)O [H3_1-11K4me3K9me3] | significantly reduced the activity |  |
| > 100 | C[C@H](NC(=O)[C@@H](NC(=O)[C@H](CCC(N)=O)NC(=O)[C@H](CCCCN)NC(=O)[C@@H](N)[C@@H](C)O)[C@@H](C)O)C(=O)N[C@@H](CCCNC(=N)N)C(=O)N[C@@H](CCCC[N+](C)(C)C)C(=O)N[C@@H](CO)C(=O)N[C@H](C(=O)O)[C@@H](C)O [Peptide H3_3-11K9me3] (H-TKQTAR[Lys(Me3)]ST-OH; N-terminus and C-terminus assumed) | completely abolished activity |  |
